Measurements published in publication PMC5672791 (Journal of medicinal chemistry, 2015).
“Also recorded” adds a separate entry of the source. Values belong to the compound of their own block, whether it stands above or below them. Where a SMILES comes first, the peptide text is derived from it. [ ]: non-standard residue; d: D form.

How the values were obtained:
hMC3R = conditions: cited from earlier work
hMC4R = conditions: cited from earlier work
mMC4R F176K = conditions: mutation F176K; cited from earlier work
[1] = test system: mMC4R mutations (E92K, F253S); conditions: cited from earlier work
MC4R = conditions: cited from earlier work
mMC4R = mMC4R (Mus musculus, UniProt P56450); type: cell-based
mMC5R = mMC5R (Mus musculus, UniProt P41149); experiment: cAMP based β-galactosidase reporter assay, agonist activity at mMC5R; type: cell-based; conditions: read-out: mMC5R Agonist EC50; HEK-293 cells, CRE/β-galactosidase reporter; mean ± SEM
mMC3R [2] = biological target: T1, mMC3R (Mus musculus, UniProt P33033); type: cell-based
mMC3R [3] = biological target: T1, mMC3R; experiment: cAMP based β-galactosidase reporter assay; type: cell-based; conditions: Figure 1
[4] = Schild analysis, agonist MTII, mean ± SEM

T1 sequence (P33033 whole entry): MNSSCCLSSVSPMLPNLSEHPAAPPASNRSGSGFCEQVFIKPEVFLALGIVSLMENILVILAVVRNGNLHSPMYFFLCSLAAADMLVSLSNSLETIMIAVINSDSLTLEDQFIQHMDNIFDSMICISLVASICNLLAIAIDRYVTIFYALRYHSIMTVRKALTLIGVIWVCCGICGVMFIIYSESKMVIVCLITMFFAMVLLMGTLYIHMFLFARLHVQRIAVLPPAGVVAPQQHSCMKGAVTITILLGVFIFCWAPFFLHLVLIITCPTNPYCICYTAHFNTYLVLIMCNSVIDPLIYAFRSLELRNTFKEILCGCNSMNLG
Sequence of mMC4R (P56450 whole entry): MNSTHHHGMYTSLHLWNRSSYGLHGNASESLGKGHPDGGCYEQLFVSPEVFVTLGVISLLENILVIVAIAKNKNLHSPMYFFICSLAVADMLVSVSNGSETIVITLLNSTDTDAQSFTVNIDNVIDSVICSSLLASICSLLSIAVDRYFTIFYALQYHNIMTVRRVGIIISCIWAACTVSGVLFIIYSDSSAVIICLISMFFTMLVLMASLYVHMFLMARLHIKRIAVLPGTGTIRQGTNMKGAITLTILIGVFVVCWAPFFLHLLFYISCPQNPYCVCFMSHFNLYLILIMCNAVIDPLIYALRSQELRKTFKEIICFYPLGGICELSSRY
Sequence of mMC5R (P41149 whole entry): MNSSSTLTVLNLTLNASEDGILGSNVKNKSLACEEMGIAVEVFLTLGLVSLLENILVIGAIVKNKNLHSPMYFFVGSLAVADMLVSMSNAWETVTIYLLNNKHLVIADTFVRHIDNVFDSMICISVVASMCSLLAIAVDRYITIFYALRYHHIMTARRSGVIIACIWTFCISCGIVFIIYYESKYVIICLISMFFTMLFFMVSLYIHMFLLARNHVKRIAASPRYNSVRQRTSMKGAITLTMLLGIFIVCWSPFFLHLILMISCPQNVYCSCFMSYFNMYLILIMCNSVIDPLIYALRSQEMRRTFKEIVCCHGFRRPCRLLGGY

Compound: Ac-c[Cys-Arg-Phe-Phe-Asn-Ala-Phe-Cys]-NH2 [AGRP(110-117)]
binding affinity at the hMC3R (hMC3R): no detectable binding
fold lower hMC4R binding affinity than AGRP(83-132) (hMC4R; compared to C-terminal AGRP(83-132)): approximately 36 fold
IC50 (hMC4R; read-out: IC50 binding affinity at the hMC4R): 127 nM

Compound: AGRP(83-132): C-terminal AGRP(83-132) peptide (SSRRCVRLHESCLGQQVPCCDPCATCYCRFFNAFCYCRKLGTAMNPCSRT; UniProt O00253 83-132, looked up, fragment)
loss of antagonist potency at mMC4R F176K (mMC4R F176K): complete loss of activity
binding to mMC4R mutations E92K, F253S [1]: unable to bind

Compound: HS024
selectivity for the MC4R compared to the MC3R (MC4R): approximately 20 fold

Ki (mMC4R): 160 nM
EC50 (mMC5R): > 100 µM
Compound: C[C@@H]1NC(=O)[C@H](CC(N)=O)NC(=O)[C@H](Cc2ccccc2)NC(=O)[C@H](Cc2ccccc2)NC(=O)[C@H](CCCNC(=N)N)NC(=O)[C@H]([C@@H](C)O)NC(=O)[C@H](Cc2ccc(O)cc2)NC(=O)[C@@H]2CCCN2C(=O)[C@H]2CCCN2C(=O)[C@H](Cc2ccc(O)cc2)NC(=O)[C@H]([C@@H](C)O)NC(=O)[C@H](Cc2ccccc2)NC1=O [Peptide 5] (cyclo(YTRFFNAFTY[dP]P))

no activity at the mMC3R up to (concentration) (mMC3R [2]): > 100 µM
mMC3R antagonist pA2 (mMC3R [2]; [4]): >100,000
no activity at the mMC4R up to (concentration) (mMC4R): > 100 µM
mMC4R antagonist pA2 (mMC4R; [4]): >100,000
EC50 (mMC5R): > 100 µM
Compound: C[C@@H]1NC(=O)[C@H](Cc2ccccc2)NC(=O)[C@H](C)NC(=O)[C@H](CC(N)=O)NC(=O)[C@H](Cc2ccccc2)NC(=O)[C@H](Cc2ccccc2)NC(=O)[C@H](CCCNC(=N)N)NC(=O)[C@H](C)NC(=O)[C@H](Cc2ccc(O)cc2)NC(=O)[C@@H]2CCCN2C(=O)[C@H]2CCCN2C(=O)[C@H](Cc2ccc(O)cc2)NC1=O [Peptide 4]

Compound: C[C@@H]1NC(=O)[C@H](CC(N)=O)NC(=O)[C@H](Cc2ccccc2)NC(=O)[C@H](Cc2ccccc2)NC(=O)[C@H](CCCNC(=N)N)NC(=O)[C@@H]2CCCN2C(=O)[C@H]2CCCN2C(=O)[C@H](Cc2ccccc2)NC1=O [Peptide 6, c[Pro-Arg-Phe-Phe-Asn-Ala-Phe-DPro]]
partial agonist activity at the mMC3R (mMC3R [3]): lack of agonist activity; also recorded: without any partial agonist activity
